Results on 20 compounds are retold here after patent US6518284B2, “4-substituted piperidines” (Faes, Fabrica Espanola de Productos Quimicos Y …, priority 1999, dated 2003).

Holding throughout (format): binding
Test [1] deals with T1, serotonin reuptake receptors (5HT) / Serotonin uptake sites (transporters) (Rattus norvegicus, UniProt P31652).
T1 construct: from tissue; host or cells: rat cerebral cortex
The test can be described thus: Affinity for serotonin reuptake sites, [3H]-paroxetine radioligand, rat cerebral cortex. The conditions noted are these: Rat brain; read-out: K1 values, Serotonin uptake sites (transporters). From the text:
(§1) The pharmacological activity of the compounds of general formula (I) was determnined-using well-established in vitro and in vivo pharmacological processes.

Test [2] addresses T2, Dopamine uptake sites (transporters) (Rattus norvegicus, UniProt P23977).
T2 construct: Uptake sites (transporters); Rat brain; from tissue; host or cells: rat brain
Put plainly: Affinity for dopamine uptake sites (transporters), rat brain. The conditions noted are these: read-out: K1 values, Dopamine uptake sites (transporters).

In test [3] the target is noradrenaline (NA) reuptake receptors / Noradrenaline uptake sites (transporters) (Rattus norvegicus, UniProt Q63380). Put plainly: Affinity for noradrenaline reuptake sites, [3H]-nisoxetine radioligand, rat cerebral cortex. The conditions noted are these: Rat brain, read-out: K1 values, Noradrenaline uptake sites (transporters).
noradrenaline (NA) reuptake receptors / Noradrenaline uptake sites (transporters), sequence (Q63380 1-617): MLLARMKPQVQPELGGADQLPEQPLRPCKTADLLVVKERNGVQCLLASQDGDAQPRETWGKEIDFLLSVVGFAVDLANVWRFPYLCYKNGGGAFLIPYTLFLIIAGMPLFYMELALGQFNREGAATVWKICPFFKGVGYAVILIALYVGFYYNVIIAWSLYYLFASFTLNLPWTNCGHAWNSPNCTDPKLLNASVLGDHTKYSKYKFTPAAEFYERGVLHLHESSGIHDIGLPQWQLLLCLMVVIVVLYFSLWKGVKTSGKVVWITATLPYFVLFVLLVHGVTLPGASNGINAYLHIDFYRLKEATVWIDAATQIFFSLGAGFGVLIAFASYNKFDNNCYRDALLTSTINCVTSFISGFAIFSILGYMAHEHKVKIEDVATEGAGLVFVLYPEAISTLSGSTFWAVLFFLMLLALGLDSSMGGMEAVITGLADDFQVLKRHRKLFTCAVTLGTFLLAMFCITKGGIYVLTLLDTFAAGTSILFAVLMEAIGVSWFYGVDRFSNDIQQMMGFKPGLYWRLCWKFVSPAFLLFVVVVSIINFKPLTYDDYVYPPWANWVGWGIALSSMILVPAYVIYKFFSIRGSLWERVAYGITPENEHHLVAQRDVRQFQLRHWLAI
Source text: as §1

SMILES strings stand for the structures. Where two headings read alike, the source gives them in different places. Some results are limits rather than exact numbers.

T2 sequence (P23977 whole entry): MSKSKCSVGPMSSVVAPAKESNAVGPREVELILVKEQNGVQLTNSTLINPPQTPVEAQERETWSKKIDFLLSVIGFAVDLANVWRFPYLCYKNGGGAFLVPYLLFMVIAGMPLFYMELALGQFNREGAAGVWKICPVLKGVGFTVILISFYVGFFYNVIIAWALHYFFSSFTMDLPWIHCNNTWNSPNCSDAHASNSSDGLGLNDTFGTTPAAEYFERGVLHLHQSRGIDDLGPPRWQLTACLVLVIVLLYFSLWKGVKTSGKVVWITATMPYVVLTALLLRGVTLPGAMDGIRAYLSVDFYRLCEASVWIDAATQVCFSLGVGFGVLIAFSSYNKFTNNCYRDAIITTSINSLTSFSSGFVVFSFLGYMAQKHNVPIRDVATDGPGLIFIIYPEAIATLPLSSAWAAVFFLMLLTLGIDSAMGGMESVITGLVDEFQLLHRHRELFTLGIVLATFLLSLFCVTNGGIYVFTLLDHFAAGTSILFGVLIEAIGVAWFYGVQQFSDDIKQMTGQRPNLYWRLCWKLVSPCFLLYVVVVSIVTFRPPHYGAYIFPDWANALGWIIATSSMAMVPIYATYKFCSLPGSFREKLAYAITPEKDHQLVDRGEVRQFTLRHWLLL
T1 sequence (P31652 whole entry): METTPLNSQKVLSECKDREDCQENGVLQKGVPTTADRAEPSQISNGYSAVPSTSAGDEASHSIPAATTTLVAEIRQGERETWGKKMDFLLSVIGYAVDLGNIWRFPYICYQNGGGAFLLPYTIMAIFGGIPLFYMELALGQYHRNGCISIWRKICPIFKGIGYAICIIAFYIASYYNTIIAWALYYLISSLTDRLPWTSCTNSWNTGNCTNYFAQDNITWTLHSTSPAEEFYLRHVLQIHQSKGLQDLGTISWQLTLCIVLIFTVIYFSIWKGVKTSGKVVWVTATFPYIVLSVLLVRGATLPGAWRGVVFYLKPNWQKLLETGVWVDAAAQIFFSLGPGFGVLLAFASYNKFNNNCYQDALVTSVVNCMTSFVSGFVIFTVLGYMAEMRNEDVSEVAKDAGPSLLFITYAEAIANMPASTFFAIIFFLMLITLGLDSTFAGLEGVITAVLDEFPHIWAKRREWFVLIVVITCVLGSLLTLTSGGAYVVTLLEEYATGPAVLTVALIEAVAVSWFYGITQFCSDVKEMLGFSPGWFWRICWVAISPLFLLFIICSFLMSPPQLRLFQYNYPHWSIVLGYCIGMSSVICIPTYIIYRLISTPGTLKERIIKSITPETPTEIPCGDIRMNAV

As for `FC(F)(F)c1ccc(OC(c2ccccc2)C2CCNCC2)cc1` (stereo not drawn) [Compound F-98404-TA], the Ki in test [1] was 14.9 nM; in test [2] (bounds given in μM) it was over 1 µM; in test [3] (bounds given in μM), over 10 µM.
As to `N#Cc1cccc(O[C@H](c2ccccc2)C2CCNCC2)c1` [Compound F-98715-TA], the Ki in test [1] was 1.68 nM; in test [2], 0.11 µM; in test [3], 0.0869 µM.
With `FC(F)(F)c1ccc(O[C@H](c2ccccc2)C2CCNCC2)cc1` [Compound F-98408-TA], the Ki in test [1] was 34.8 nM; in test [2] (bounds given in μM) it was over 1 µM; in test [3] (bounds given in μM), over 10 µM.
In the case of `N#Cc1cccc(OC(c2ccccc2)C2CCNCC2)c1` (stereo not drawn) [Compound F-98716-TA], the results for the Ki in test [1], in test [2] (bounds given in μM) and in test [3] were 1.43 nM, over 1 µM and 0.18 µM, respectively.
As to `Fc1cccc([C@@H](Oc2ccccc2F)C2CCNCC2)c1` [Compound F-98925-PD], the Ki was found to be 27.6 nM in test [1], 0.377 µM in test [2] and 0.0481 µM in test [3].
As to `Clc1cccc(O[C@H](c2ccccc2)C2CCNCC2)c1` [Compound F-98620-TA], in test [2] (bounds given in μM), the Ki was over 1 µM.
For the compound `Fc1cccc(O[C@@H](c2cccc(F)c2)C2CCNCC2)c1` [Compound F-98829-PD], the Ki in test [1] was 2.83 nM; in test [2] (bounds given in μM) it was over 1 µM; in test [3], 0.0175 µM.
Consider `Fc1cc(F)cc(O[C@@H](c2ccccc2)C2CCNCC2)c1` [Compound F-98822-TA], for which the Ki was 7.09 nM in test [1], over 1 µM in test [2] (bounds given in μM) and 0.386 µM in test [3].
For the compound `Fc1ccccc1O[C@H](c1ccccc1)C1CCNCC1` [Compound F-98607-PD], the Ki was 4.2 nM in test [1], over 1 µM in test [2] (bounds given in μM) and 0.0225 µM in test [3].
Consider `Fc1ccc(O[C@@H](c2ccccc2)C2CCNCC2)cc1` [Compound F-97814-TA], for which the Ki in test [1] was determined as 0.45 nM; in test [2], 0.821 µM.
On to `Fc1cccc(O[C@H](c2ccccc2)C2CCNCC2)c1` [Compound F-98214-TA], for which the Ki came out at 0.461 µM in test [2] and 0.0135 µM in test [3].
`Clc1cccc(O[C@@H](c2ccccc2)C2CCNCC2)c1` [Compound F-98616-TA]: the Ki in test [2] (bounds given in μM) is over 1 µM; in test [3], 0.0558 µM.
On to `Fc1cccc(O[C@H](c2cccc(F)c2)C2CCNCC2)c1` [Compound F-98828-PD], for which the Ki stood at 9.99 nM in test [1], 0.113 µM in test [2] and 0.128 µM in test [3].
For the compound `Fc1cccc([C@H](Oc2ccccc2F)C2CCNCC2)c1` [Compound F-98917-PD], the results for the Ki in test [1], in test [2] (bounds given in μM) and in test [3] were 4.3 nM, over 1 µM and 0.0191 µM, respectively.
As to `Fc1ccccc1O[C@@H](c1ccccc1)C1CCNCC1` [Compound F-98718-PD], the results for the Ki in test [1], in test [2] and in test [3] were 28.5 nM, 0.52 µM and 0.0414 µM, respectively.
Take `Fc1cccc(O[C@@H](c2ccccc2)C2CCNCC2)c1` [Compound F-98212-TA]: the Ki is over 1 µM in test [2] (bounds given in μM) and 0.107 µM in test [3].
For the compound `O=[N+]([O-])c1ccc(OC(c2ccccc2)C2CCNCC2)cc1` (stereo not drawn) [Compound F-98610-PD], the Ki in test [1] is 15.1 nM; in test [2] (bounds given in μM), over 1 µM; in test [3] (bounds given in μM), over 1 µM.
For the compound `O=[N+]([O-])c1ccc(O[C@H](c2ccccc2)C2CCNCC2)cc1` [Compound F-98603-PD], the values for the Ki in test [1], in test [2] (bounds given in μM) and in test [3] (bounds given in μM) were 0.63 nM, over 10 µM and over 1 µM, respectively.
For `Fc1cc(F)cc(O[C@H](c2ccccc2)C2CCNCC2)c1` [Compound F-98814-TA], the Ki was 1.4 nM in test [1], over 1 µM in test [2] (bounds given in μM) and 0.0248 µM in test [3].
On to `Fc1ccc(O[C@H](c2ccccc2)C2CCNCC2)cc1` [Compound F-97815-TA], for which the Ki in test [1] is 45.9 nM; in test [2], 0.253 µM; in test [3], 1.45 µM.
